Test results published in patent US20150056702A1, “METHOD AND KIT FOR CULTURING STEM CELLS” (China Medical University, priority 2013, published 2015).

Tested on: ES cells
Test: DNA microarray analysis of ES cells
Assay type: cell-based, mouse
Conditions: for Amino acid metabolism: % of genes regulated / Amino acid metabolism: D, number of down-regulated genes / Amino acid metabolism: I, number of up-regulated genes / Amino acid metabolism: No. (regulated genes/genes of function) / Apoptosis: % of genes regulated / Apoptosis: D, number of down-regulated genes / Apoptosis: I, number of up-regulated genes / Apoptosis: No. (regulated genes/genes of function) / Calcium signaling pathway: % of genes regulated / Calcium signaling pathway: D, number of down-regulated genes / Calcium signaling pathway: I, number of up-regulated genes / Calcium signaling pathway: No. (regulated genes/genes of pathway) / Cell adhesion molecules: % of genes regulated / Cell adhesion molecules: D, number of down-regulated genes / Cell adhesion molecules: I, number of up-regulated genes / Cell adhesion molecules: No. (regulated genes/genes of function) / Cell communication: % of genes regulated / Cell communication: D, number of down-regulated genes / Cell communication: I, number of up-regulated genes / Cell communication: No. (regulated genes/genes of function) / Cell cycle: % of genes regulated / Cell cycle: D, number of down-regulated genes / Cell cycle: I, number of up-regulated genes / Cell cycle: No. (regulated genes/genes of function) / ECM-receptor interaction: % of genes regulated / ECM-receptor interaction: D, number of down-regulated genes / ECM-receptor interaction: I, number of up-regulated genes / ECM-receptor interaction: No. (regulated genes/genes of pathway) / Insulin signaling pathway: % of genes regulated / Insulin signaling pathway: D, number of down-regulated genes / Insulin signaling pathway: I, number of up-regulated genes / Insulin signaling pathway: No. (regulated genes/genes of pathway) / JAK-STAT signaling pathway: % of genes regulated / JAK-STAT signaling pathway: D, number of down-regulated genes / JAK-STAT signaling pathway: I, number of up-regulated genes / JAK-STAT signaling pathway: No. (regulated genes/genes of pathway) / Lipid metabolism: % of genes regulated / Lipid metabolism: D, number of down-regulated genes / Lipid metabolism: I, number of up-regulated genes / Lipid metabolism: No. (regulated genes/genes of function) / MAPK signaling: % of genes regulated / MAPK signaling: D, number of down-regulated genes / MAPK signaling: I, number of up-regulated genes / MAPK signaling: No. (regulated genes/genes of pathway) / PPAR signaling pathway: % of genes regulated / PPAR signaling pathway: D, number of down-regulated genes / PPAR signaling pathway: I, number of up-regulated genes / PPAR signaling pathway: No. (regulated genes/genes of pathway) / TGF-β signaling pathway: % of genes regulated / TGF-β signaling pathway: D, number of down-regulated genes / TGF-β signaling pathway: I, number of up-regulated genes / TGF-β signaling pathway: No. (regulated genes/genes of pathway) / VEGF signaling pathway: % of genes regulated / VEGF signaling pathway: D, number of down-regulated genes / VEGF signaling pathway: I, number of up-regulated genes / VEGF signaling pathway: No. (regulated genes/genes of pathway) / Wnt signaling pathway: % of genes regulated / Wnt signaling pathway: D, number of down-regulated genes / Wnt signaling pathway: I, number of up-regulated genes / Wnt signaling pathway: No. (regulated genes/genes of pathway) / focal adhesion: % of genes regulated / focal adhesion: D, number of down-regulated genes / focal adhesion: I, number of up-regulated genes / focal adhesion: No. (regulated genes/genes of function) / tight junction: % of genes regulated / tight junction: D, number of down-regulated genes / tight junction: I, number of up-regulated genes / tight junction: No. (regulated genes/genes of function): ES cells, 24 hours
Description: The DNA microarray analysis was used to determine whether the gene expression profiles in various pathways in cells will be affected when the cells were cultured by a BP-containing medium.
An experimental group medium (BP10 or BP 40), a LIF-containing medium (without BP), and a control group medium (without BP) were used respectively in a 6-well culture dish to culture ES cells with an initial density of 1×10^4 per well for 24 hours. Next, performing total RNA extraction and the obtained RNA was labeled with Cy3. Samples were hybridized to Agilent Mouse G3 Whole Genome Oligo 86×60K microarrays (Agilent) according to the manufacturer's instructions. Arrays were scanned with a Microarray Scanner System and data was analyzed by using a GeneSpring GX software (Agilent).
According to the related research at present, the Jak-Stat signaling pathway is the most relevant in terms of stem cell self-renewal and pluripotency maintenance.

[1] = BP10 medium (about 10 μg BP/ml)
[2] = BP40 medium (about 40 μg BP/ml)

CCCC=C1OC(=O)c2ccccc21 [BP, n-butylidenephthalide]
Amino acid metabolism: % of genes regulated [1]: 4.3%
Amino acid metabolism: D, number of down-regulated genes [1]: 1
Amino acid metabolism: I, number of up-regulated genes [1]: 0
Amino acid metabolism: No. (regulated genes/genes of function) [1]: 1/23
Apoptosis: % of genes regulated [1]: 11.7%
Apoptosis: D, number of down-regulated genes [1]: 8
Apoptosis: I, number of up-regulated genes [1]: 3
Apoptosis: No. (regulated genes/genes of function) [1]: 11/94
Calcium signaling pathway: % of genes regulated [1]: 21.9%
Calcium signaling pathway: D, number of down-regulated genes [1]: 28
Calcium signaling pathway: I, number of up-regulated genes [1]: 4
Calcium signaling pathway: No. (regulated genes/genes of pathway) [1]: 32/146
Cell adhesion molecules: % of genes regulated [1]: 22%
Cell adhesion molecules: D, number of down-regulated genes [1]: 20
Cell adhesion molecules: I, number of up-regulated genes [1]: 13
Cell adhesion molecules: No. (regulated genes/genes of function) [1]: 33/150
Cell communication: % of genes regulated [1]: 21.7%
Cell communication: D, number of down-regulated genes [1]: 17
Cell communication: I, number of up-regulated genes [1]: 3
Cell communication: No. (regulated genes/genes of function) [1]: 20/92
Cell cycle: % of genes regulated [1]: 2.5%
Cell cycle: D, number of down-regulated genes [1]: 4
Cell cycle: I, number of up-regulated genes [1]: 0
Cell cycle: No. (regulated genes/genes of function) [1]: 4/163
ECM-receptor interaction: % of genes regulated [1]: 28.4%
ECM-receptor interaction: D, number of down-regulated genes [1]: 18
ECM-receptor interaction: I, number of up-regulated genes [1]: 3
ECM-receptor interaction: No. (regulated genes/genes of pathway) [1]: 21/74
Insulin signaling pathway: % of genes regulated [1]: 9.8%
Insulin signaling pathway: D, number of down-regulated genes [1]: 7
Insulin signaling pathway: I, number of up-regulated genes [1]: 3
Insulin signaling pathway: No. (regulated genes/genes of pathway) [1]: 10/102
JAK-STAT signaling pathway: % of genes regulated [1]: 27.9%
JAK-STAT signaling pathway: D, number of down-regulated genes [1]: 30
JAK-STAT signaling pathway: I, number of up-regulated genes [1]: 9
JAK-STAT signaling pathway: No. (regulated genes/genes of pathway) [1]: 39/140
Lipid metabolism: % of genes regulated [1]: 16.5%
Lipid metabolism: D, number of down-regulated genes [1]: 15
Lipid metabolism: I, number of up-regulated genes [1]: 3
Lipid metabolism: No. (regulated genes/genes of function) [1]: 18/109
MAPK signaling: % of genes regulated [1]: 10.6%
MAPK signaling: D, number of down-regulated genes [1]: 17
MAPK signaling: I, number of up-regulated genes [1]: 7
MAPK signaling: No. (regulated genes/genes of pathway) [1]: 24/227
PPAR signaling pathway: % of genes regulated [1]: 37.8%
PPAR signaling pathway: D, number of down-regulated genes [1]: 14
PPAR signaling pathway: I, number of up-regulated genes [1]: 14
PPAR signaling pathway: No. (regulated genes/genes of pathway) [1]: 28/74
TGF-β signaling pathway: % of genes regulated [1]: 11.1%
TGF-β signaling pathway: D, number of down-regulated genes [1]: 2
TGF-β signaling pathway: I, number of up-regulated genes [1]: 3
TGF-β signaling pathway: No. (regulated genes/genes of pathway) [1]: 5/45
VEGF signaling pathway: % of genes regulated [1]: 6.5%
VEGF signaling pathway: D, number of down-regulated genes [1]: 0
VEGF signaling pathway: I, number of up-regulated genes [1]: 2
VEGF signaling pathway: No. (regulated genes/genes of pathway) [1]: 2/31
Wnt signaling pathway: % of genes regulated [1]: 10.6%
Wnt signaling pathway: D, number of down-regulated genes [1]: 5
Wnt signaling pathway: I, number of up-regulated genes [1]: 2
Wnt signaling pathway: No. (regulated genes/genes of pathway) [1]: 7/66
focal adhesion: % of genes regulated [1]: 11%
focal adhesion: D, number of down-regulated genes [1]: 16
focal adhesion: I, number of up-regulated genes [1]: 3
focal adhesion: No. (regulated genes/genes of function) [1]: 19/173
tight junction: % of genes regulated [1]: 13.6%
tight junction: D, number of down-regulated genes [1]: 7
tight junction: I, number of up-regulated genes [1]: 2
tight junction: No. (regulated genes/genes of function) [1]: 9/66
Amino acid metabolism: % of genes regulated [2]: 8.7%
Amino acid metabolism: D, number of down-regulated genes [2]: 2
Amino acid metabolism: I, number of up-regulated genes [2]: 0
Amino acid metabolism: No. (regulated genes/genes of function) [2]: 2/23
Apoptosis: % of genes regulated [2]: 7.4%
Apoptosis: D, number of down-regulated genes [2]: 6
Apoptosis: I, number of up-regulated genes [2]: 1
Apoptosis: No. (regulated genes/genes of function) [2]: 7/94
Calcium signaling pathway: % of genes regulated [2]: 21.9%
Calcium signaling pathway: D, number of down-regulated genes [2]: 30
Calcium signaling pathway: I, number of up-regulated genes [2]: 2
Calcium signaling pathway: No. (regulated genes/genes of pathway) [2]: 32/146
Cell adhesion molecules: % of genes regulated [2]: 22.7%
Cell adhesion molecules: D, number of down-regulated genes [2]: 21
Cell adhesion molecules: I, number of up-regulated genes [2]: 13
Cell adhesion molecules: No. (regulated genes/genes of function) [2]: 34/150
Cell communication: % of genes regulated [2]: 21.7%
Cell communication: D, number of down-regulated genes [2]: 18
Cell communication: I, number of up-regulated genes [2]: 2
Cell communication: No. (regulated genes/genes of function) [2]: 20/92
Cell cycle: % of genes regulated [2]: 3.7%
Cell cycle: D, number of down-regulated genes [2]: 6
Cell cycle: I, number of up-regulated genes [2]: 0
Cell cycle: No. (regulated genes/genes of function) [2]: 6/163
ECM-receptor interaction: % of genes regulated [2]: 25.7%
ECM-receptor interaction: D, number of down-regulated genes [2]: 16
ECM-receptor interaction: I, number of up-regulated genes [2]: 3
ECM-receptor interaction: No. (regulated genes/genes of pathway) [2]: 19/74
Insulin signaling pathway: % of genes regulated [2]: 4.9%
Insulin signaling pathway: D, number of down-regulated genes [2]: 3
Insulin signaling pathway: I, number of up-regulated genes [2]: 2
Insulin signaling pathway: No. (regulated genes/genes of pathway) [2]: 5/102
JAK-STAT signaling pathway: % of genes regulated [2]: 25%
JAK-STAT signaling pathway: D, number of down-regulated genes [2]: 27
JAK-STAT signaling pathway: I, number of up-regulated genes [2]: 8
JAK-STAT signaling pathway: No. (regulated genes/genes of pathway) [2]: 35/140
Lipid metabolism: % of genes regulated [2]: 12.8%
Lipid metabolism: D, number of down-regulated genes [2]: 12
Lipid metabolism: I, number of up-regulated genes [2]: 2
Lipid metabolism: No. (regulated genes/genes of function) [2]: 10/109
MAPK signaling: % of genes regulated [2]: 10.6%
MAPK signaling: D, number of down-regulated genes [2]: 19
MAPK signaling: I, number of up-regulated genes [2]: 5
MAPK signaling: No. (regulated genes/genes of pathway) [2]: 24/227
PPAR signaling pathway: % of genes regulated [2]: 36.5%
PPAR signaling pathway: D, number of down-regulated genes [2]: 14
PPAR signaling pathway: I, number of up-regulated genes [2]: 12
PPAR signaling pathway: No. (regulated genes/genes of pathway) [2]: 27/74
TGF-β signaling pathway: % of genes regulated [2]: 13.3%
TGF-β signaling pathway: D, number of down-regulated genes [2]: 1
TGF-β signaling pathway: I, number of up-regulated genes [2]: 5
TGF-β signaling pathway: No. (regulated genes/genes of pathway) [2]: 6/45
VEGF signaling pathway: % of genes regulated [2]: 0%
VEGF signaling pathway: D, number of down-regulated genes [2]: 0
VEGF signaling pathway: I, number of up-regulated genes [2]: 0
VEGF signaling pathway: No. (regulated genes/genes of pathway) [2]: 0/31
Wnt signaling pathway: % of genes regulated [2]: 9.1%
Wnt signaling pathway: D, number of down-regulated genes [2]: 6
Wnt signaling pathway: I, number of up-regulated genes [2]: 0
Wnt signaling pathway: No. (regulated genes/genes of pathway) [2]: 6/66
focal adhesion: % of genes regulated [2]: 12.7%
focal adhesion: D, number of down-regulated genes [2]: 20
focal adhesion: I, number of up-regulated genes [2]: 2
focal adhesion: No. (regulated genes/genes of function) [2]: 22/173
tight junction: % of genes regulated [2]: 16.7%
tight junction: D, number of down-regulated genes [2]: 9
tight junction: I, number of up-regulated genes [2]: 2
tight junction: No. (regulated genes/genes of function) [2]: 11/66
pathways of the genes significantly regulated (ES cells cultured with the BP-containing medium, result in words): majorly involved in the PPAR, ECM-receptor interaction, and/or Jak-Stat signaling pathways
